Data reported in patent US20260284062A1 (Konstantin Pavlovich GARYAEV, priority 2023, published 2026).

Legend:
[1] = 0.5% Novocaine, 5.0-10.0 ml, in medicinal mixture administered into the recommended sites; cited from earlier work
[2] = tested on: myocardial infarction, ischemic stroke and peripheral thrombosis; conditions: oral antiplatelet therapy with acetylsalicylic acid and clopidogrel; cited from earlier work
[3] = Patient history of statin treatment (tolerability); type: in vivo, human; conditions: history of patient M. (Example 1)

| SMILES | reduction of the risk of myocardial infarction, ischemic stroke and peripheral thrombosis [2] | also measured |
| --- | --- | --- |
| CCN(CC)CCOC(=O)c1ccc(N)cc1 [Novocaine] |  | undesirable effects [1]: reduction of arterial pressure up to collapse, dizziness, headache, arrhythmia |
| CC(=O)Oc1ccccc1C(=O)O [acetylsalicylic acid] | 20-25% |  |
| COC(=O)[C@H](c1ccccc1Cl)N1CCc2sccc2C1 [clopidogrel] | 20-25% |  |
| CCC(C)(C)C(=O)O[C@H]1C[C@@H](C)C=C2C=C[C@H](C)[C@H](CC[C@@H]3C[C@@H](O)CC(=O)O3)[C@H]21 [simvastatin] |  | tolerability of earlier treatment [3]: discontinued due to side effects |
